Source: the supplement of paper PMC11451515

Test system: NOMO1
Assay: cell viability relative to DMSO control; higher = less cytotoxic
Conditions: 48 h
Method in brief: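 Viability, reported as a per-plate percentage of DMSO wells with cell-free wells as background, came from CellTiter-Glo One luminescence. Reading took place after 48 h at 37°C. Before that, NOMO1 or SEM (500 cells/well) or P12-Ichikawa (1000 cells/well) leukemia cells, adapted for at least four passages in each medium, were seeded in 1536-well plates (5 μl) and pin-dosed with library compounds in DMSO, 47 μM to 0.79 nM over 11 threefold points.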

[1] = HPLM + 10% dialyzed FBS, 0.000781 µM
[2] = HPLM + 10% dialyzed FBS, 0.00234 µM
[3] = HPLM + 10% dialyzed FBS, 0.00702 µM
[4] = HPLM + 10% dialyzed FBS, 0.0211 µM
[5] = HPLM + 10% dialyzed FBS, 0.0632 µM
[6] = HPLM + 10% dialyzed FBS, 0.19 µM
[7] = HPLM + 10% dialyzed FBS, 0.569 µM
[8] = HPLM + 10% dialyzed FBS, 1.71 µM
[9] = HPLM + 10% dialyzed FBS, 5.12 µM
[10] = HPLM + 10% dialyzed FBS, 15.4 µM
[11] = HPLM + 10% dialyzed FBS, 46.1 µM
[12] = RPMI 5 mM glucose + 10% FBS, 0.000781 µM
[13] = RPMI 5 mM glucose + 10% FBS, 0.00234 µM
[14] = RPMI 5 mM glucose + 10% FBS, 0.00702 µM
[15] = RPMI 5 mM glucose + 10% FBS, 0.0211 µM
[16] = RPMI 5 mM glucose + 10% FBS, 0.0632 µM
[17] = RPMI 5 mM glucose + 10% FBS, 0.19 µM
[18] = RPMI 5 mM glucose + 10% FBS, 0.569 µM
[19] = RPMI 5 mM glucose + 10% FBS, 1.71 µM
[20] = RPMI 5 mM glucose + 10% FBS, 5.12 µM
[21] = RPMI 5 mM glucose + 10% FBS, 15.4 µM
[22] = RPMI 5 mM glucose + 10% FBS, 46.1 µM
[23] = RPMI 5 mM glucose + 10% dialyzed FBS, 0.000781 µM
[24] = RPMI 5 mM glucose + 10% dialyzed FBS, 0.00234 µM
[25] = RPMI 5 mM glucose + 10% dialyzed FBS, 0.00702 µM
[26] = RPMI 5 mM glucose + 10% dialyzed FBS, 0.0211 µM
[27] = RPMI 5 mM glucose + 10% dialyzed FBS, 0.0632 µM
[28] = RPMI 5 mM glucose + 10% dialyzed FBS, 0.19 µM
[29] = RPMI 5 mM glucose + 10% dialyzed FBS, 0.569 µM
[30] = RPMI 5 mM glucose + 10% dialyzed FBS, 1.71 µM
[31] = RPMI 5 mM glucose + 10% dialyzed FBS, 5.12 µM
[32] = RPMI 5 mM glucose + 10% dialyzed FBS, 15.4 µM
[33] = RPMI 5 mM glucose + 10% dialyzed FBS, 46.1 µM

Row | Compound | cell viability [1] [%] | cell viability [2] [%] | cell viability [3] [%] | cell viability [4] [%] | cell viability [5] [%] | cell viability [6] [%] | cell viability [7] [%] | cell viability [8] [%] | cell viability [9] [%] | cell viability [10] [%] | cell viability [11] [%] | cell viability [12] [%] | cell viability [13] [%] | cell viability [14] [%] | cell viability [15] [%] | cell viability [16] [%] | cell viability [17] [%] | cell viability [18] [%] | cell viability [19] [%] | cell viability [20] [%] | cell viability [21] [%] | cell viability [22] [%] | cell viability [23] [%] | cell viability [24] [%] | cell viability [25] [%] | cell viability [26] [%] | cell viability [27] [%] | cell viability [28] [%] | cell viability [29] [%] | cell viability [30] [%] | cell viability [31] [%] | cell viability [32] [%] | cell viability [33] [%]
1 | O=P1(NCCCl)OCCCN1CCCl (centres undefined) | 90.5 | 102 | 96.8 | 104 | 97.7 | 84.6 | 119 | 117 | 99.7 | 109 | 76.1 | 82.3 | 88 | 79.4 | 77.2 | 77 | 89.2 | 83.5 | 86.8 | 91.1 | 76.8 | 79.4 | 86.9 | 87.6 | 81.1 | 85.3 | 85.6 | 87.9 | 87.4 | 97.5 | 84.6 | 98.5 | 78.1
2 | Cc1ccnc(N[S+](=O)([O-])c2ccc(NC(=O)Nc3ccc([S+](=O)([O-])Nc4nccc(C)n4)cc3)cc2)n1 | 100 | 99.6 | 99.3 | 101 | 107 | 20.8 | 37.1 | 7.33 | 6.39 | 4.89 | 2.2 | 97.6 | 83.9 | 83.5 | 90.1 | 86.6 | 36 | 53.1 | 7.07 | 5.88 | 4.91 | 2.42 | 79.3 | 77.8 | 88 | 85.2 | 86.5 | 46.8 | 56 | 6.77 | 5.66 | 4.24 | 2.51
3 | CC1(C)NC(=O)N(c2ccc([N+](=O)[O-])c(C(F)(F)F)c2)C1=O | 93.3 | 91.4 | 90 | 107 | 96.2 | 96.9 | 82 | 92.8 | 90 | 90.1 | 82.3 | 92.9 | 95.5 | 90.9 | 94.6 | 92.8 | 88.7 | 90.1 | 97.8 | 86.3 | 82.2 | 76.4 | 80.9 | 87.7 | 90.8 | 86.6 | 86.2 | 82.2 | 89.3 | 85.9 | 86.5 | 77.5 | 82.1
4 | CC(C)C[C@@H](C(=O)N[C@H](C(=O)OC1CCCC1)c1ccccc1)[C@H](O)C(=O)NO | 107 | 114 | 112 | 119 | 126 | 107 | 104 | 122 | 103 | 96.2 | 33.6 | 111 | 102 | 117 | 117 | 103 | 107 | 103 | 99.3 | 99 | 92.6 | 13 | 114 | 114 | 122 | 122 | 100 | 119 | 102 | 118 | 106 | 91.2 | 16
5 | Cc1ccc(C)c(OCCCC(C)(C)C(=O)O)c1 | 92.3 | 84.2 | 93 | 95.6 | 89.9 | 102 | 105 | 88.4 | 98.9 | 104 | 98.3 | 78.1 | 93.7 | 101 | 94.1 | 85.5 | 105 | 99.4 | 88.7 | 92.1 | 96.5 | 92.9 | 76.5 | 92 | 88.9 | 94.1 | 96.1 | 103 | 101 | 81.3 | 88.3 | 106 | 96.2
6 | CC(C)(OCc1nn(Cc2ccccc2)c2ccccc12)C(=O)O | 101 | 99.8 | 108 | 116 | 120 | 84.4 | 108 | 114 | 88.8 | 85.2 | 99.1 | 84.4 | 89.3 | 98.8 | 96 | 93 | 92.2 | 99.9 | 94.2 | 89.8 | 96.8 | 83.4 | 96.2 | 91.5 | 93.3 | 108 | 91.6 | 106 | 102 | 83.6 | 111 | 95.4 | 97.4
7 | CCCCC(F)(F)[C@@]1(O)CC[C@H]2[C@@H](CC(=O)[C@@H]2CCCCCCC(=O)O)O1 | – | – | – | – | – | – | – | – | – | – | – | 123 | 123 | 126 | 115 | 118 | 117 | 115 | 108 | 121 | 111 | 103 | – | – | – | – | – | – | – | – | – | – | –
8 | Clc1ccc(C(Cn2ccnc2)OCc2ccc(Sc3ccccc3)cc2)c(Cl)c1 (centres undefined) | 126 | 101 | 124 | 120 | 146 | 109 | 126 | 107 | 109 | 98.8 | 104 | 99.2 | 108 | 106 | 111 | 111 | 125 | 104 | 103 | 118 | 70.9 | 63.8 | 111 | 123 | 116 | 112 | 116 | 125 | 134 | 104 | 124 | 88.9 | 59.8
9 | O=C(Nc1ccncc1)C(=O)c1cn(Cc2ccc(Cl)cc2)c2ccccc12 | 106 | 110 | 116 | 105 | 77.9 | 38.1 | 34 | 32.7 | 36.2 | 60.6 | 61.7 | 95.5 | 98.1 | 89.3 | 89.2 | 100 | 46.2 | 26.3 | 22.6 | 53.7 | 44.1 | 61.9 | 88.2 | 91.2 | 116 | 106 | 80.4 | 45.4 | 28.3 | 34.7 | 45.3 | 39.7 | 49.4
10 | COc1ccccc1N1CCN(CC(O)COc2cccc3ccccc23)CC1 (centres undefined) | – | – | – | – | – | – | – | – | – | – | – | 115 | 131 | 122 | 133 | 132 | 143 | 116 | 115 | 113 | 107 | 23.6 | – | – | – | – | – | – | – | – | – | – | –
11 | Clc1ccc(C(Cn2ccnc2)OCc2ccsc2Cl)c(Cl)c1 (centres undefined) | 102 | 127 | 114 | 116 | 103 | 98.8 | 108 | 113 | 134 | 117 | 80.6 | 89.7 | 106 | 119 | 102 | 110 | 102 | 119 | 105 | 96.6 | 111 | 94.2 | 88 | 113 | 112 | 129 | 99 | 122 | 118 | 113 | 96.3 | 100 | 73.5
12 | NC(=O)c1ncn([C@@H]2O[C@H](CO)[C@@H](O)[C@H]2O)c1N | 127 | 111 | 96 | 136 | 111 | 121 | 123 | 123 | 126 | 115 | 83 | – | – | – | – | – | – | – | – | – | – | – | – | – | – | – | – | – | – | – | – | – | –
13 | CC=CC1=C(C(=O)O)N2C(=O)[C@@H](NC(=O)[C@H](N)c3ccc(O)cc3)[C@H]2SC1.O | 80.5 | 102 | 113 | 104 | 120 | 116 | 118 | 60.7 | 33.1 | 31.3 | 23.8 | 93.7 | 109 | 113 | 116 | 112 | 125 | 118 | 28.4 | 22.2 | 18.1 | 15.1 | 106 | 104 | 96 | 104 | 117 | 113 | 109 | 89.6 | 24.8 | 23.6 | 20
14 | CC/C(=C(\c1ccccc1)c1ccc(OCCN(C)C)cc1)c1ccccc1 | 95 | 122 | 107 | 99.5 | 119 | 113 | 113 | 92.4 | 111 | 92.5 | 49.1 | 94.8 | 102 | 102 | 115 | 103 | 101 | 94.1 | 99 | 96.1 | 105 | 76.7 | 93.1 | 99.2 | 104 | 103 | 115 | 110 | 114 | 99.8 | 117 | 81 | 34.7
15 | CCC[S+](=O)([O-])Nc1ccc(F)c(C(=O)c2c[nH]c3ncc(-c4ccc(Cl)cc4)cc23)c1F | 124 | 112 | 113 | 116 | 143 | 132 | 108 | 99.7 | 108 | 116 | 93.2 | 101 | 113 | 112 | 103 | 117 | 113 | 106 | 120 | 112 | 111 | 98.9 | 113 | 116 | 112 | 129 | 109 | 112 | 121 | 107 | 108 | 112 | 94.5
